Test results taken from article PMC4336141, “Repurposing Auranofin as a Lead Candidate for Treatment of Lymphatic Filariasis and Onchocerciasis” (PLoS Neglected Tropical Diseases, 2015).

What was measured:
adult female O. ochengi = experiment: Adult female Onchocerca ochengi viability, MTT/formazan assay in vitro; type: cell-based; conditions: Day 7, MTT/formazan
Method: Cows that had grazed in northern Cameroon where O. ochengi is highly endemic were brought to abattoirs located in Douala, Cameroon. Subcutaneous nodules containing adult O. ochengi worms were identified on the umbilical skin of infected cows. Adult worm masses containing one viable, adult female and zero to several adult males were carefully recovered by dissection of the nodule with a sterile razor blade. The masses were then incubated in 4 mL of complete culture medium (CCM), which was comprised of RPMI-1640 (Sigma-Aldrich), 5% newborn calf serum, 200 units/mL penicillin, 200 μg/mL streptomycin and 2.5 μg/mL amphotericin B (Sigma-Aldrich), in standard 12-well culture plates. […] Adult female worm viability was assessed on day 7 by the standard MTT/formazan assay in which each nodular mass was placed in a well of a 48-well microtiter plate containing 500 μL of 0.5 mg/mL MTT (Sigma-Aldrich) in incomplete culture medium, and then incubated in the dark at 37°C for 30 minutes. Adult female worm viability was evaluated visually by the extent to which the female worm mass was stained with MTT. Mean percent inhibition of formazan formation was calculated relative to the negative control worm masses after 7 days in culture. […]

adult male O. ochengi = experiment: Adult male Onchocerca ochengi motility scoring in vitro; type: cell-based; conditions: Day 5, motility
L. loa microfilariae = experiment: Loa loa microfilariae motility in vitro; type: cell-based; conditions: Day 5
Method: Loa loa microfilariae were purified from the blood of a heavily infected subject (having approximately 10,000 microfilariae/mL of blood) using Percoll (GE Healthcare, Piscataway, NJ) gradient centrifugation. Venous blood (10 mL) was collected from consenting, infected individuals in an EDTA tube. The blood was layered on a step-wise Percoll gradient (46% and 43% Percoll prepared in CCM) followed by centrifugation at 400 rcf for 20 minutes. The L. loa microfilariae were recovered in the 43% layer, washed 3 times in CCM and counted.
Microfilariae (10–15 per well) were cultured in 96-well culture plates in duplicate under the same conditions and drug concentrations as were used for the adult O. ochengi, except that 10 μg/mL ivermectin was used as a positive control. Microfilariae viability was visually scored based on motility reduction using the same scale described above for adult male O. ochengi. Scores were recorded every 24 hours after the addition of drugs for 5 days using an inverted microscope.

[1] = tested on: endogenous Brugia thioredoxin reductase; experiment: Thioredoxin reductase activity of lysates of worms recovered from gerbils treated in vivo
Method: Thioredoxin reductase activity of worm lysates was assayed using female B. malayi treated in vitro with either 0.3 μM, 0.1 μM, or 0.03 μM auranofin or 1% DMSO. After 5 hours of treatment, worm motility was measured using the Worminator, and then worms (24 in each group) were pooled, washed three times in PBS, and lysed by douncing in a glass homogenizer in assay buffer (Abcam Thioredoxin Reductase Assay kit, ab83463) with 1 mM PMSF. The crude lysates were centrifuged at 10,000 rcf for 15 minutes at 4°C to pellet insoluble material. The total protein concentrations of soluble lysates were measured using the Bradford assay. The soluble lysates were incubated for 20 minutes in assay buffer or assay buffer with a proprietary thioredoxin reductase specific inhibitor before adding a specific substrate, DTNB (5, 5′-dithiobis (2-nitrobenzoic) acid), and measuring activity at 20 second intervals for 40 minutes using the SpectraMax Plus Microplate Reader (Molecular Devices, Sunnyvale, CA) at λ = 412 nm. Lysates were tested in duplicate. TrxR activity was calculated based on the linear amount of TNB produced per minute per mg of total protein and adjusted for background activity from enzymes other than TrxR in the lysates.
Thioredoxin reductase activity was also analyzed in worms that were treated with auranofin or vehicle in vivo. […]

glutathione peroxidase = molecular target: glutathione peroxidase; set-up: method as in PMID 9685351; conditions: higher IC50; cited from earlier work
[2] = set-up: method as in PMID 6417628; conditions: patients with rheumatoid arthritis treated for an average of 6 months; cited from earlier work

Q: For `CC[PH](CC)(CC)[Au][S][C@@H]1O[C@H](COC(C)=O)[C@@H](OC(C)=O)[C@H](OC(C)=O)[C@H]1OC(C)=O` [auranofin, 2,3,4,6-tetra-O-acetyl-1-thio-beta-D-glucopyranosato-S (triethylphosphine) gold], which IC50 (adult female O. ochengi) is on record?
A: 300 nM

Q: What about the IC50 (adult male O. ochengi) of the same molecule?
A: 400 nM

Q: And the IC50 (L. loa microfilariae)?
A: 12800 nM

Q: What about the “Thioredoxin reductase activity, percent of vehicle control” value ([1]; worms collected 16 days after the last dose from treated gerbils) of the same molecule?
A: 51%

Q: What about the “reduction of endogenous thioredoxin reductase activity vs vehicle” value ([1]; worms removed 16 days after the last dose from gerbils treated 28 days) of the same molecule?
A: 49%

Q: And the “IC50 relative to TrxR isolated from human placenta” value (glutathione peroxidase)?
A: about 1000 fold

Q: What about the side effects [2] of the same molecule?
A: few side effects, with the most common side effect being diarrhea
